The conditions of series [1]: other bond.
In series [2] the test system is Phospho-Rb (Ser807/811) in OVCAR3 cells. Kind of series: Phospho-Rb expression inhibition in OVCAR3 cells quantified by In Cell Western. The class given is cell-based. As to conditions: Homo sapiens, OVCAR-3, 24 hours, read-out: OVCAR-3 pRb IC50. In a few lines: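 In-cell western: after 24 h compound exposure at 37° C, fixed OVCAR3 cells co-stained for pRb Ser807/811 (800 nm channel) and total Rb (680 nm channel), imaged by LI-COR Odyssey.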

Series [3] deals with CCNE1-normal SKOV3 cells. Kind of series: Cell growth inhibition of CCNE1-normal SKOV3 cells (CellTiter-Glo). The series is classed as cell-based. As to conditions: Homo sapiens, SK-OV-3, 144 h, 6 days. In a few lines:
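Growth was measured by CellTiter-Glo luminescence after 6 days' compound exposure at 37 °C. Cells were plated one day before dosing at 1000 per well in medium with 10% FBS, and compounds were diluted from DMSO stocks.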

The target of series [4] is CDK6-CYCLIN D3 (Homo sapiens, UniProt Q00534). Kind of series: CDK protein kinase inhibition by ADP-Glo assay, CDK6-CYCLIN D3. The class given is biochemical. In a few lines: (§1)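 Human CDK/cyclin complexes with peptide substrate, 1000 μM ATP, 5 mM MgCl2 in 100 mM HEPES pH 7.5, 0.1% BSA, 0.01% Triton X-100, 1 mM DTT, 1% DMSO, incubated at 22° C. ADP formed was detected by ADP-Glo luminescence after quench.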
CDK6-CYCLIN D3, sequence (Q00534 whole entry): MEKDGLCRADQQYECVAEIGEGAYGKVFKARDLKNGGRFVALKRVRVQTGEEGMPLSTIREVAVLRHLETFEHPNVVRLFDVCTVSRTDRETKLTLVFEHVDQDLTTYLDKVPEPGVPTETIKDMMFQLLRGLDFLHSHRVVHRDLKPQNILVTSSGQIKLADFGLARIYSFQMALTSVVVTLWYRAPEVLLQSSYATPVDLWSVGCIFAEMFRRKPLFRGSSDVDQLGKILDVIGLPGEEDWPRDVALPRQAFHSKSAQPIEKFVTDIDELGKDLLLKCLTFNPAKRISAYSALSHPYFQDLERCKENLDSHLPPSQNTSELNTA
CDK6-CYCLIN D3, sequence (P30281 whole entry partner): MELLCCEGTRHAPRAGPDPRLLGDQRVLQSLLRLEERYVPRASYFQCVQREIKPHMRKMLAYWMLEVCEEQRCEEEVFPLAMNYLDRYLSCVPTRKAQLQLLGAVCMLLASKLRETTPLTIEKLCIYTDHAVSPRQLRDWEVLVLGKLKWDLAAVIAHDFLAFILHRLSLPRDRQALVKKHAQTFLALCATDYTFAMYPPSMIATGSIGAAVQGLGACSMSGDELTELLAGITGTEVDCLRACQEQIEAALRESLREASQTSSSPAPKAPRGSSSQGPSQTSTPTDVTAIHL

Series [5] deals with CDK4-CYCLIN D1 (Homo sapiens, UniProt P11802). Kind of series: CDK protein kinase inhibition by ADP-Glo assay, CDK4-CYCLIN D1. The class given is biochemical. In a few lines: as §1
CDK4-CYCLIN D1, sequence (P11802 whole entry): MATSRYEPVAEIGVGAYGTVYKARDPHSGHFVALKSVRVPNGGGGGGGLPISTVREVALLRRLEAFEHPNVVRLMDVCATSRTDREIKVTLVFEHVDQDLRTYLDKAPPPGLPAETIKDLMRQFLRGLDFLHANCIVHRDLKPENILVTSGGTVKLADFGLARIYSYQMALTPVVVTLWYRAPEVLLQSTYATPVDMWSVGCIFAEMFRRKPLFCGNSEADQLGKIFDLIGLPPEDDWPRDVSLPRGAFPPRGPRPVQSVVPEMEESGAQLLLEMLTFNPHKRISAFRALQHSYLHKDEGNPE
CDK4-CYCLIN D1, sequence (P24385 whole entry partner): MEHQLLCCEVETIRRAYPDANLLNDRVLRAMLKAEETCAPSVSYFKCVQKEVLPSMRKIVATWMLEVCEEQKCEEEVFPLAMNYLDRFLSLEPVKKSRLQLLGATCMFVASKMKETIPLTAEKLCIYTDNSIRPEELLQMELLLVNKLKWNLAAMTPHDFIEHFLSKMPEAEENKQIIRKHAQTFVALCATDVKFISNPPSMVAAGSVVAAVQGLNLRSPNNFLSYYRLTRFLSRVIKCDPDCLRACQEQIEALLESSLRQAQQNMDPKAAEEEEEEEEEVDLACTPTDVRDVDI
Series [6] addresses CDK1-CYCLIN B (Homo sapiens, UniProt P06493). Kind of series: CDK protein kinase inhibition by ADP-Glo assay, CDK1-CYCLIN B. The class given is biochemical. Summed up: as §1
Series [7] has as its system CCNE1-amplified OVCAR3 cells. Briefly: Cell growth inhibition of CCNE1-amplified OVCAR3 cells (CellTiter-Glo). The class given is cell-based. As to conditions: Homo sapiens, OVCAR-3, 144 h, 6 days. In a few lines:
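Growth read-out was CellTiter-Glo luminescence, taken after 10 min at room temperature at the end of a 6-day compound exposure at 37 °C. Compounds were diluted from DMSO stocks across various concentrations.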

For series [8], the target named is CDK9-CYCLIN T1 (Homo sapiens, UniProt P50750). Briefly: CDK protein kinase inhibition by ADP-Glo assay, CDK9-CYCLIN T1. The class given is biochemical. Summed up: as §1
CDK9-CYCLIN T1, sequence (P50750 whole entry): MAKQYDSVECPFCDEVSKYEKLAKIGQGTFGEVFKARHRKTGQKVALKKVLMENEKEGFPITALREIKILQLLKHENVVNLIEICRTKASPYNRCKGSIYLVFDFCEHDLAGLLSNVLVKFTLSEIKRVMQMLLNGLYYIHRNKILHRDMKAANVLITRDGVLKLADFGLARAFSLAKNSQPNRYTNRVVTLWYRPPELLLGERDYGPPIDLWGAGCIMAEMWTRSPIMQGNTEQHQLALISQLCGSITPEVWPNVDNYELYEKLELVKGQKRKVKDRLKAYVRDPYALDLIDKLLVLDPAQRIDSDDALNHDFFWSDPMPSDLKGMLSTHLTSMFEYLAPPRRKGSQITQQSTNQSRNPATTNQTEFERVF
CDK9-CYCLIN T1, sequence (O60563 whole entry partner): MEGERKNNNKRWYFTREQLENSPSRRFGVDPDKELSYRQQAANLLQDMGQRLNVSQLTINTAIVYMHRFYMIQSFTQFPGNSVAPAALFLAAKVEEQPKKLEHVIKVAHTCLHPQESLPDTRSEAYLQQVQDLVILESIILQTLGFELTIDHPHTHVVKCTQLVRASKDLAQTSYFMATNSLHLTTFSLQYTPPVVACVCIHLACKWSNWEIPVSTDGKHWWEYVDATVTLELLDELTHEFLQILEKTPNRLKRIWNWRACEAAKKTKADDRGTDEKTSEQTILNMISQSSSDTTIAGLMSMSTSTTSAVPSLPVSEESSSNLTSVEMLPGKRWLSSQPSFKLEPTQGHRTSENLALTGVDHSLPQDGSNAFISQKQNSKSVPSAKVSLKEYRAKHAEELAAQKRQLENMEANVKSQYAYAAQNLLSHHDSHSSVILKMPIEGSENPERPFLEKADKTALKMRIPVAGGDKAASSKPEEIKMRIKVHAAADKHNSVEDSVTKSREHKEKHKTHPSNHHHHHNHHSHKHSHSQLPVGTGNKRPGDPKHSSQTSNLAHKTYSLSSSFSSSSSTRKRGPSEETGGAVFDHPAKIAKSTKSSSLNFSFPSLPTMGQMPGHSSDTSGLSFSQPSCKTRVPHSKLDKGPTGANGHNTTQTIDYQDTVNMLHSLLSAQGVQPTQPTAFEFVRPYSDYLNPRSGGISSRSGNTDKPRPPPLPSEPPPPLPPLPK
Series [9] addresses CDK2-CYCLIN E1 (Homo sapiens, UniProt P24941). Kind of series: CDK protein kinase inhibition by ADP-Glo assay, CDK2-CYCLIN E1. As to conditions: ADP-Glo, 1000 μM ATP; Table 11; read-out: CDK2-CYCLINE, IC50. The series is classed as biochemical. In a few lines:
as §1

The values below come from US20240317777A1, “NOVEL MACROCYCLIC AMINOPYRAZOLE COMPOUNDS AS CDK2 INHIBITORS” (Accutar Biotechnology Inc., priority 2023, published 2024).

pIC50: −log10 of the molar value. Read-outs that look alike come from different tables or passages of the source.

CDK1-CYCLIN B, sequence (P06493 whole entry): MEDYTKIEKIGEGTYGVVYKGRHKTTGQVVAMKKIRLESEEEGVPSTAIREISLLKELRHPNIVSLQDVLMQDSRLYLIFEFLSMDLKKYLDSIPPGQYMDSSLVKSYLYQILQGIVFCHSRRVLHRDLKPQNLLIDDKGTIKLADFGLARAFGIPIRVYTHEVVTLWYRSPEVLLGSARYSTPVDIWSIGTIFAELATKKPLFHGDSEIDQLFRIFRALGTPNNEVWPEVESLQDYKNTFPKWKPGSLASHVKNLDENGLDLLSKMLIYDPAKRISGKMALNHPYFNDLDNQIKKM
CDK1-CYCLIN B, sequence (P14635 whole entry partner): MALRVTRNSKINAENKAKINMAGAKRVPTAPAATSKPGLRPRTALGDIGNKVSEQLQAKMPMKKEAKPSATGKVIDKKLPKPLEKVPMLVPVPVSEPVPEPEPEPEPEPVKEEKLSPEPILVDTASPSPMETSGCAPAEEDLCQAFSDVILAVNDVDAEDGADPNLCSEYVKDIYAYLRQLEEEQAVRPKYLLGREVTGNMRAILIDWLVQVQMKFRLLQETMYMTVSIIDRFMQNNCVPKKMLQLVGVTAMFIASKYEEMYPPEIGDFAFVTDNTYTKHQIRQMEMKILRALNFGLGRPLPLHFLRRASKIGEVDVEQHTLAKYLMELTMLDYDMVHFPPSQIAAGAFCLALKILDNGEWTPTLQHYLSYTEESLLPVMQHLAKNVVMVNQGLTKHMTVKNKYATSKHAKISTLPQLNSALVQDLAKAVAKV

As for `C[C@@H]1NC(=O)O[C@@H]2CC[C@@H](C2)c2cc(n(C(C)(C)C)n2)Nc2ccnc(c2)OCCC1F` (stereo partly drawn), in series [1] (from C[C@H](N)C(F)CCOc1cc(Nc2cc([C@H]3CC[C@@H](OC(=O)Oc4ccc([N+](=O)[O-])cc4)C3)nn2C(C)(C)C)ccn1, DIEA, DMSO, 1.71 mM, 100.0 °C, 2.0 h), the ring closure, yield of all isomers was 97%.

Regarding `CC(C)(C)n1nc2cc1Nc1cncc(c1)OCCCCNC(=O)O[C@@H]1CC[C@H]2C1`, in series [1] (from CC(C)(C)n1nc([C@H]2CC[C@@H](OC(=O)Oc3ccc([N+](=O)[O-])cc3)C2)cc1Nc1cncc(OCCCCN)c1, DIPEA, THF, 2.01 mM, 25.0 °C, 12.0 h, 2 steps), the ring closure, yield of all isomers worked out at 49.3%.

Take `CC(C)(C)n1nc2cc1Nc1ccnc(c1)C(F)(F)C[C@H]1C[C@@H](C1)NC(=O)O[C@@H]1CC[C@H]2C1`: the ring closure, yield of all isomers in [1] (from CC(C)(C)n1nc([C@H]2CC[C@@H](OC(=O)Oc3ccc([N+](=O)[O-])cc3)C2)cc1Nc1ccnc(C(F)(F)C[C@H]2C[C@H](N)C2)c1, DIEA, THF, 3.33 mM, 25.0 °C, 12.0 h) was 99.9%.

Molecule `CC1(C)CCCOc2cc(ccn2)Nc2cc(nn2C(C)(C)C)[C@H]2CC[C@H](C2)OC(=O)N1` displayed a ring closure, yield of all isomers in [1] (from CC(C)(N)CCCOc1cc(Nc2cc([C@H]3CC[C@@H](OC(=O)Oc4ccc([N+](=O)[O-])cc4)C3)nn2C(C)(C)C)ccn1, DIPEA, DMAP, THF, 1.82 mM, 50.0 °C, 39.0 h) of 88.8%.

Take `C[C@H]1CCCOc2cc(cc(F)n2)Nc2cc(nn2C(C)(C)C)[C@H]2CC[C@H](C2)OC(=O)N1`: in [1] (from C[C@H](N)CCCOc1cc(Nc2cc([C@H]3CC[C@@H](OC(=O)Oc4ccc([N+](=O)[O-])cc4)C3)nn2C(C)(C)C)cc(F)n1, DIEA, THF, 1.71 mM, 25.0 °C, 3.0 h), the ring closure, yield of all isomers amounted to 97.8%.

The molecule `C[C@H]1CC(F)(F)COc2cc(ccn2)Nc2cc(nn2C(C)(C)C)[C@H]2CC[C@H](C2)OC(=O)N1` gave a ring closure, yield of all isomers in [1] (from C[C@H](N)CC(F)(F)COc1cc(Nc2cc([C@H]3CC[C@@H](OC(=O)Oc4ccc([N+](=O)[O-])cc4)C3)nn2C(C)(C)C)ccn1, DIEA, THF, 1.83 mM, 80.0 °C, 12.0 h) of 66.2%.

In turn, `CC1OCCCNC(=O)O[C@@H]2CC[C@@H](C2)c2cc(n(C(C)(C)C)n2)Nc2ccnc1c2` (stereo partly drawn) showed a ring closure, yield of all isomers in [1] (from CC(OCCCN)c1cc(Nc2cc([C@H]3CC[C@@H](OC(=O)Oc4ccc([N+](=O)[O-])cc4)C3)nn2C(C)(C)C)ccn1, DIEA, THF, 6.34 mM, 100.0 °C, 3.0 h) of 87.5%.

`CC(C)(C)n1nc2cc1Nc1ccnc(c1)CCCCCNC(=O)O[C@@H]1CC[C@H]2C1` returned a ring closure, yield of all isomers in series [1] (from CC(C)(C)n1nc([C@H]2CC[C@@H](OC(=O)Oc3ccc([N+](=O)[O-])cc3)C2)cc1Nc1ccnc(CCCCCN)c1, DIPEA, THF, 2.0 mM, 30.0 °C, 3.0 h) of 85%.

As for `C[C@H]1CCCOc2cc(c(F)cn2)Nc2cc(nn2C(C)(C)C)[C@H]2CC[C@H](C2)OC(=O)N1`, the ring closure, yield of all isomers in [1] (from C[C@H](N)CCCOc1cc(Nc2cc([C@H]3CC[C@@H](OC(=O)Oc4ccc([N+](=O)[O-])cc4)C3)nn2C(C)(C)C)c(F)cn1, DIEA, THF, 1.71 mM, 25.0 °C, 3.0 h) worked out at 99.9%.

With `CC(C)(C)n1nc2cc1Nc1ccnc(c1)OC[C@H]1C[C@@H](C1)NC(=O)O[C@@H]1CC[C@H]2C1`, in [1] (from CC(C)(C)n1nc([C@H]2CC[C@@H](OC(=O)Oc3ccc([N+](=O)[O-])cc3)C2)cc1Nc1ccnc(OC[C@H]2C[C@H](N)C2)c1, DIEA, THF, 1.21 mM, 70.0 °C, 12.0 h), the ring closure, yield of all isomers was 96.7%.

Turning to `CC(C)(C)n1nc2cc1Nc1cc(nc(C(F)F)c1)OCCCCNC(=O)O[C@@H]1CC[C@H]2C1`, the ring closure, yield of all isomers in series [1] (from CC(C)(C)n1nc([C@H]2CC[C@@H](OC(=O)Oc3ccc([N+](=O)[O-])cc3)C2)cc1Nc1cc(OCCCCN)nc(C(F)F)c1, DIEA, THF, 1.11 mM, 25.0 °C, 12.0 h) stood at 65%.

With `CC1CC23CC(C2)(C3)NC(=O)O[C@@H]2CC[C@@H](C2)c2cc(n(C(C)(C)C)n2)Nc2cc(nc(C(F)F)c2)O1` (stereo partly drawn), the ring closure, yield of all isomers in [1] (from CC(CC12CC(N)(C1)C2)Oc1cc(Nc2cc([C@H]3CC[C@@H](OC(=O)Oc4ccc([N+](=O)[O-])cc4)C3)nn2C(C)(C)C)cc(C(F)F)n1, DIEA, THF, 9.15 mM, 80.0 °C, 2.0 h) was found to be 84.7%.

Regarding `CC(C)(C)n1nc2cc1Nc1cc(nc(C(F)F)c1)CCCCCNC(=O)O[C@@H]1CC[C@H]2C1`, the ring closure, yield of all isomers in series [1] (from CC(C)(C)n1nc([C@H]2CC[C@@H](OC(=O)Oc3ccc([N+](=O)[O-])cc3)C2)cc1Nc1cc(CCCCCN)nc(C(F)F)c1, DIPEA, THF, 3.27 mM, 30.0 °C, 12.0 h) turned out to be 44.1%.

In [1] (from C[C@H](N)C(F)(F)CCOc1cc(Nc2cc([C@H]3C[C@@H](F)[C@@H](OC(=O)Oc4ccc([N+](=O)[O-])cc4)C3)nn2C(C)(C)C)ccn1, DIEA, DMSO, 3.13 mM, 100.0 °C, 12.0 h), `C[C@@H]1NC(=O)O[C@H]2C[C@H](C[C@H]2F)c2cc(n(C(C)(C)C)n2)Nc2ccnc(c2)OCCC1(F)F` had a ring closure, yield of all isomers of 88%.

In [1] (from C[C@H](N)CCCC(F)(F)c1cc(Nc2cc([C@H]3CC[C@@H](OC(=O)Oc4ccc([N+](=O)[O-])cc4)C3)nn2C(C)(C)C)ccn1, DIEA, THF, 1.33 mM, 25.0 °C, 3.0 h), `C[C@H]1CCCC(F)(F)c2cc(ccn2)Nc2cc(nn2C(C)(C)C)[C@H]2CC[C@H](C2)OC(=O)N1` displayed a ring closure, yield of all isomers of 99.3%.

In series [1] (from CC(N)CCCOc1cc(Nc2cc([C@H]3CC[C@@H](OC(=O)Oc4ccc([N+](=O)[O-])cc4)C3)nn2C(C)(C)C)ccn1, DIPEA, THF, 2.06 mM, 30.0 °C, 24.0 h), `CC1CCCOc2cc(ccn2)Nc2cc(nn2C(C)(C)C)[C@H]2CC[C@H](C2)OC(=O)N1` (stereo partly drawn) came in with a ring closure, yield of all isomers of 98.5%.

`CC(C)(C)n1nc2cc1Nc1cncc(n1)OC[C@H]1C[C@@H](C1)NC(=O)O[C@@H]1CC[C@H]2C1` returned a ring closure, yield of all isomers in [1] (from CC(C)(C)n1nc([C@H]2CC[C@@H](OC(=O)Oc3ccc([N+](=O)[O-])cc3)C2)cc1Nc1cncc(OC[C@H]2C[C@H](N)C2)n1, DIEA, DMSO, 2.3 mM, 100.0 °C, 12.0 h) of 38%.

As to `C[C@@H]1CC/C=C/c2cc(ccn2)Nc2cc(nn2C(C)(C)C)[C@H]2CC[C@H](C2)OC(=O)N1`, the ring closure, yield of all isomers in series [1] (from C[C@@H](N)CC/C=C/c1cc(Nc2cc([C@H]3CC[C@@H](OC(=O)Oc4ccc([N+](=O)[O-])cc4)C3)nn2C(C)(C)C)ccn1, DIEA, THF, 1.46 mM, 70.0 °C, 12.0 h) turned out to be 98.6%.

Turning to `C[C@H]1CCCOc2cc(ccn2)Nc2cc(nn2C(C)(C)C)[C@H]2CC[C@H](C2)OC(=O)N1`, the ring closure, yield of all isomers in [1] (from C[C@H](N)CCCOc1cc(Nc2cc([C@H]3CC[C@@H](OC(=O)Oc4ccc([N+](=O)[O-])cc4)C3)nn2C(C)(C)C)ccn1, DIEA, THF, 3.53 mM, 50.0 °C, 12.0 h) turned out to be 84.8%.

Molecule `C[C@H]1CCCOc2nccc(n2)Nc2cc(nn2C(C)(C)C)[C@H]2CC[C@H](C2)OC(=O)N1` registered a ring closure, yield of all isomers in [1] (from C[C@H](N)CCCOc1nccc(Nc2cc([C@H]3CC[C@@H](OC(=O)Oc4ccc([N+](=O)[O-])cc4)C3)nn2C(C)(C)C)n1, DIEA, DMSO, 1.79 mM, 80.0 °C, 3.0 h) of 93%.

With `C[C@@H]1CCCCc2cc(ccn2)Nc2cc(nn2C(C)(C)C)[C@H]2CC[C@H](C2)OC(=O)N1`, in series [1] (from C[C@@H](N)CCCCc1cc(Nc2cc([C@H]3CC[C@@H](OC(=O)Oc4ccc([N+](=O)[O-])cc4)C3)nn2C(C)(C)C)ccn1, DIPEA, THF, 1.42 mM, 100.0 °C, 3.0 h), the ring closure, yield of all isomers worked out at 99.5%.

On to `O=C1NC23CC(COc4cc(cc(C(F)F)n4)Nc4cc([nH]n4)[C@H]4CC[C@H](C4)O1)(C2)C3` [Compound 19, (1^1S,1^3R,Z)-46-(difluoromethyl)-2^1H-5,10-dioxa-3,8-diaza-4(4,2)-pyridina-2(3,5)-pyrazola-7(1,3)-bicyclo[1.1.1]pentana-1(1,3)-cyclopentanacyclodecaphan-9-one], for which the pIC50 in [2] was 8.00 to 8.70; in series [3] it was less than 5.90; in series [4] (ADP-Glo, 1000 μM ATP, Table 11, read-out: CDK6-CYCLIND3, IC50), less than 6.30; in [5] (ADP-Glo, 1000 μM ATP, Table 11, read-out: CDK4-CYCLIND1, IC50), less than 6.30; in series [6] (ADP-Glo, 1000 μM ATP, Table 11, read-out: CDK1-CYCLINB, IC50), 7.00 to 7.30; in series [7], 7.30 to 8.00. The pIC50 in series [8] (ADP-Glo, 1000 μM ATP, Table 11, read-out: CDK9-CYCLINT1, IC50) was less than 6.30; in series [9], not below 8.00. Besides, the “CDK2 Fold selectivity, CDK6” value in series [4] (CDK2 versus CDK6, Table 12) was “B (B, >100 and ≤500)”. For the same molecule, the “CDK2 Fold selectivity, CDK4” value in series [5] (CDK2 versus CDK4, Table 12) is “A (A, ≥500)”. Besides, in series [6] (CDK2 versus CDK1, Table 12), the “CDK2 Fold selectivity, CDK1” value was “D (D, >20 and ≤50)”. In addition, the “CDK2 Fold selectivity, CDK9” value in series [8] (CDK2 versus CDK9, Table 12) is on record as “A (A, ≥500)”.
